According to patent publication US12459951B2, “Compounds that interact with RAS superfamily proteins for treatment of cancers, inflammatory diseases, rasopathies, and fibrotic disease” (SHY Therapeutics, LLC, priority 2022, dated 2025):

Experiments:
[1] = system: Akt phosphorylation; assay: Akt Phosphorylation Assay (western blot), Panc-1; assay type: cell-based, human; settings: at 10 μM, * = activation
Procedure: Protocol for Western Akt Cell-Based Phosphorylation Assay
This assay is referred to as the “Akt Phosphorylation Assay” throughout this application.
Human tumor-derived pancreatic cancer cell line Panc-1 (expressing KRas G12D mutant) was purchased from American Type Culture Collection and grown in complete DMEM-High Glucose supplemented with penicillin (100 U/mL), streptomycin (100 μg/mL), and 10% heat-inactivated FBS at 37° C. in a humidified incubator with 5% CO2.
Method 1: Cells were plated at 350000 cells/well density in a 12-well plate, allowed 3 hours to adhere to the plate, then starved in the appropriate medium in the presence of 0.5% FBS overnight. The small molecules to be tested were added to the cells in the final concentration of 10 μM in the presence of 0.3% DMSO for 6 hours incubation at 37° C. Next, cells were stimulated with 1.5 ng/ml EGF for 15 minutes then cells were lysed with lysis buffer containing 1% Triton X-100, EDTA, and Halt™ Protease & Phosphatase Inhibitor Cocktail (Thermo Scientific). Protein concentration was assessed by BCA protein assay (Thermo Scientific). Phosphorylation level of Akt was determined by western blot.
Method 2: Cells were plated at 350000 cells/well density in a 12-well plate in 10% FBS. The next day small molecules to be tested were added to the cells in the final concentration of 10 μM in the presence of 0.3% DMSO for 6 hours incubation at 37° C. For IC50 value determination, serial dilutions of compounds were added to cells under the same conditions. Next, cells were lysed with lysis buffer containing 1% Triton X-100, EDTA, and Halt™ Protease & Phosphatase Inhibitor Cocktail (Thermo Scientific). Protein concentration was assessed by BCA protein assay (Thermo Scientific). Phosphorylation level of Akt was determined by western blot.
Western blot protocol: Equal amounts of protein (15-50 μg) were separated by SDS-PAGE and transferred to nitrocellulose membranes (Invitrogen by Thermo Fisher Scientific). The membrane was stained with Ponceau S Stain (Boston BioProducts) to verify uniform protein loading. Membranes were blocked with 10% milk and phosphorylation levels of Akt were assessed by incubating overnight at 4° C. with anti-phospho-Akt (Ser473) antibody (Cell Signaling) followed by HRP-conjugated secondary antibody (Jackson Immunoresearch, West Grove, PA). Bands were incubated in Amersham ECL Prime Western Blotting Detection Reagent (GE Healthcare) and visualized using the ChemiDoc MP imaging system (Bio-Rad).

[2] = system: MiaPaca-2 (expressing KRAS G12C mutant); assay: Proliferation Assay (Cell Viability Assay); assay type: cell-based; settings: Homo sapiens, MIA PaCa-2; read-out: Proliferation in MiaPaca-2: IC50
Procedure: Protocol for Proliferation Assay
This assay is referred to as the “Proliferation Assay” or “Cell Viability Assay” throughout this application.
Cell lines: Human tumor-derived cell lines were purchased from American Type Culture Collection. Human tumor-derived pancreatic cancer cell line MiaPaca-2 (expressing KRAS G12C mutant) and Panc-1 (expressing KRas G12D mutant), and Human non-small cell lung cancer (NSCLC) cell line A549 (expressing KRas G12S mutant) were grown in complete DMEM-High Glucose medium. Human colon cancer cell line SW-620 (expressing KRas G12V mutant) was grown in RPMI 1640 medium. All cell lines were supplemented with penicillin (100 U/mL), streptomycin (100 μg/mL), and 10% heat-inactivated FBS at 37° C. in a humidified incubator with 5% CO2.
(§1) Method: Cells were plated at 2000 to 5000 cells/well density in 96-wells plate and cultured overnight. Small molecules to be tested were added to the cells in the final concentration of 10 μM in the presence of 0.3% DMSO and 10% FBS and incubated for 2-4 days at 37° C. in a humidified incubator with 5% CO2. For IC50 value determination, serial dilutions of compounds were added to cells under the same conditions.
Assay: At the end of the incubation period, cell viability was determined using the CellTiter 96® Aqueous One Solution Cell Proliferation Assay according to manufacturer specifications (Promega, Madison, WI). The percentage of small molecules inhibition of cellular proliferation was calculated from raw data.
Cell lines: these Human tumor-derived cell lines were purchased from American Type Culture Collection. Human tumor-derived pancreatic cancer cell line MiaPaca-2 (expressing KRAS G12C mutant) and Panc-1 (expressing KRas G12D mutant), and Human non-small cell lung cancer (NSCLC) cell line A549 (expressing KRas G12S mutant), and Human melanoma cell line A375 (wild type Kras) were grown in complete DMEM-High Glucose medium. Human tumor-derived pancreatic cancer cell lines SU86.86 (expressing KRas G12D mutant), BxPC3 (expressing wild type K-Ras), and Human non-small cell lung cancer (NSCLC) cell lines NCI-H441 (expressing KRas G12S mutant), NCI-H1975 (expressing wild type KRas), NCI-H358 (expressing KRas G12C mutant), NCI-H1299 (expressing NRas Q61H mutant), and Human colon cancer cell line SW-620 (expressing KRas G12V mutant), Human triple negative breast cancer cell line HCC-1806 (expressing wild type KRas), and Human tumor-derived multiple myeloma cell line MM.1R (expressing wild type KRAS), were grown in RPMI 1640 medium. Human tumor-derived breast cancer cell line BT-549 (expressing wild type KRAS) was grown in RPMI 1640 medium in the presence of 11.8U insulin. Human tumor-derived pancreatic cancer cell line HPAF-II (expressing KRas G12D mutant), Human triple negative breast cancer cell line BT-20 (expressing wild type KRas), and Human colon cancer cell line LS123 (expressing KRas G12S mutant), were grown in EMEM medium. Human tumor-derived pancreatic cancer cell line CF-PAC1 (expressing KRas G12V mutant) was frown in IMDM medium, and Human colon cancer cell line HT29 (expressing wild type KRas) was grown in McCoy's 5A medium. The colon cancer cell line GP2d (expressing KRas G12D mutant) was purchased from MilliporeSigma and grown in DMEM-High Glucose medium. All cell lines were supplemented with penicillin (100 U/mL), streptomycin (100 μg/mL), and 10% heat-inactivated FBS at 37° C. in a humidified incubator with 5% CO2.
as §1, with “that were” for “to be”, “FBS,” for “FBS”

Compound	% inh of Akt phosphorylation in Panc-1 [1]	IC50 [2]
Cc1c(-c2ccn(C)n2)cn2nc(-c3nccn3C)nc(Nc3cc(OC(C)C)ccn3)c12 [Compound 136, N-(4-Isopropoxypyridin-2-yl)-5-methyl-2-(1-methyl-1H-imidazol-2-yl)-6-(1-methyl-1H-pyrazol-3-yl)pyrrolo[2,1-f][1,2,4]triazin-4-amine]	D* (85-100% activation)	< 150 nM
Cc1c(-c2ccn(C(C)C)n2)cn2nc(-c3nccn3C)nc(Nc3nccn3C)c12 [Compound 93, 6-(1-Isopropyl-1H-pyrazol-3-yl)-5-methyl-N,2-bis(1-methyl-1H-imidazol-2-yl)pyrrolo[2,1-f][1,2,4]triazin-4-amine]	D* (85-100% activation)	150 to 500 nM
Cc1c(-c2ccn(C3CC3)n2)cn2nc(-c3nccn3C)nc(Nc3cc(OC(F)F)ccn3)c12 [Compound 139, 6-(1-Cyclopropyl-1H-pyrazol-3-yl)-N-(4-(difluoromethoxy)pyridin-2-yl)-5-methyl-2-(1-methyl-1H-imidazol-2-yl)pyrrolo[2,1-f][1,2,4]triazin-4-amine]	D* (85-100% activation)	< 150 nM
Cc1c(-c2ccn(C)n2)cn2nc(-c3nccn3C)nc(Nc3cc(OC(F)F)ccn3)c12 [Compound 128, N-(4-(Difluoromethoxy)pyridin-2-yl)-5-methyl-2-(1-methyl-1H-imidazol-2-yl)-6-(1-methyl-1H-pyrazol-3-yl)pyrrolo[2,1-f][1,2,4]triazin-4-amine]	D* (85-100% activation)	< 150 nM
Cc1c(-c2ccn(C3CC3)n2)cn2nc(-c3nccn3C)nc(Nc3ccccn3)c12 [Compound 143, 6-(1-Cyclopropyl-1H-pyrazol-3-yl)-5-methyl-2-(1-methyl-1H-imidazol-2-yl)-N-(pyridin-2-yl)pyrrolo[2,1-f][1,2,4]triazin-4-amine]	D* (85-100% activation)	< 150 nM
COc1cc(-c2cn3nc(-c4nccn4C)nc(N[C@H]4C[C@@H](OC)C4)c3c2C)ccn1 [Compound 162, N-((1s,3s)-3-Methoxycyclobutyl)-6-(2-methoxypyridin-4-yl)-5-methyl-2-(1-methyl-1H-imidazol-2-yl)pyrrolo[2,1-f][1,2,4]triazin-4-amine]	B (26-49% inhibition)	> 1000 nM
Cc1c(-c2ccn(C3CC3)n2)cn2nc(-c3nccn3C)nc(O)c12 [Compound 134, 6-(1-Cyclopropyl-1H-pyrazol-3-yl)-5-methyl-2-(1-methyl-1H-imidazol-2-yl)pyrrolo[2,1-f][1,2,4]triazin-4-ol]	A (1-25% inhibition)	> 1000 nM
Cc1c(-c2cccnc2)cn2nc(-c3nccn3C)nc(Nc3ccncn3)c12 [Compound 156, 5-Methyl-2-(1-methyl-1H-imidazol-2-yl)-6-(pyridin-3-yl)-N-(pyrimidin-4-yl)pyrrolo[2,1-f][1,2,4]triazin-4-amine]	D* (85-100% activation)	< 150 nM
Cc1c(-c2ccn(C)n2)cn2nc(-c3nccn3C)nc(Nc3nccn3C)c12 [Compound 106, 5-Methyl-N,2-bis(1-methyl-1H-imidazol-2-yl)-6-(1-methyl-1H-pyrazol-3-yl)pyrrolo[2,1-f][1,2,4]triazin-4-amine]	D* (85-100% activation)	< 150 nM
COc1cnc(Nc2nc(-c3nccn3C)nn3cc(-c4ccn(C)n4)c(C)c23)nc1.Cl [Compound 117, N-(5-Methoxypyrimidin-2-yl)-5-methyl-2-(1-methyl-1H-imidazol-2-yl)-6-(1-methyl-1H-pyrazol-3-yl)pyrrolo[2,1-f][1,2,4]triazin-4-amine hydrochloride salt]	B (26-49% inhibition)	< 150 nM
